Results on five molecules are retold here after ChEMBL document CHEMBL1201862, “PubChem BioAssay data set” (2004).

SMILES strings stand for the structures. Active and inactive are the calls of the source.

Format in all cases: functional
Experiment [1] concerns the target Glutathione-S-transferase (Schistosoma japonicum, UniProt Q26513). The experiment is described as follows: biotin-GST/anti-GST TR-FRET signal inhibitors, dose response, artefact control for Vif-APOBEC3G degradation inhibitor project, biochemical (AID 1117362).
Experiment [2] deals with Beta-galactosidase (Escherichia coli, UniProt Q8VNN2). Put plainly: beta-galactosidase enzyme inhibitors and activators, dose response, artefact control for CCR6 antagonist project, biochemical, E. coli enzyme, set 3 (AID 504712).
Experiment [3] addresses Peroxisome proliferator-activated receptor gamma/Nuclear receptor coactivator 2 (Homo sapiens, UniProt P37231).
The target of experiment [4] is Glucose-6-phosphate 1-dehydrogenase (Homo sapiens, UniProt P11413). Put plainly: human G6PD enzyme inhibitors, dose response, selectivity assay for P. falciparum G6PD inhibitor project, biochemical, fluorescence (AID 504792).
Experiment [5] addresses T1, Hexokinase HKDC1 (Homo sapiens, UniProt Q2TB90).
T1 sequence (Q2TB90 whole entry): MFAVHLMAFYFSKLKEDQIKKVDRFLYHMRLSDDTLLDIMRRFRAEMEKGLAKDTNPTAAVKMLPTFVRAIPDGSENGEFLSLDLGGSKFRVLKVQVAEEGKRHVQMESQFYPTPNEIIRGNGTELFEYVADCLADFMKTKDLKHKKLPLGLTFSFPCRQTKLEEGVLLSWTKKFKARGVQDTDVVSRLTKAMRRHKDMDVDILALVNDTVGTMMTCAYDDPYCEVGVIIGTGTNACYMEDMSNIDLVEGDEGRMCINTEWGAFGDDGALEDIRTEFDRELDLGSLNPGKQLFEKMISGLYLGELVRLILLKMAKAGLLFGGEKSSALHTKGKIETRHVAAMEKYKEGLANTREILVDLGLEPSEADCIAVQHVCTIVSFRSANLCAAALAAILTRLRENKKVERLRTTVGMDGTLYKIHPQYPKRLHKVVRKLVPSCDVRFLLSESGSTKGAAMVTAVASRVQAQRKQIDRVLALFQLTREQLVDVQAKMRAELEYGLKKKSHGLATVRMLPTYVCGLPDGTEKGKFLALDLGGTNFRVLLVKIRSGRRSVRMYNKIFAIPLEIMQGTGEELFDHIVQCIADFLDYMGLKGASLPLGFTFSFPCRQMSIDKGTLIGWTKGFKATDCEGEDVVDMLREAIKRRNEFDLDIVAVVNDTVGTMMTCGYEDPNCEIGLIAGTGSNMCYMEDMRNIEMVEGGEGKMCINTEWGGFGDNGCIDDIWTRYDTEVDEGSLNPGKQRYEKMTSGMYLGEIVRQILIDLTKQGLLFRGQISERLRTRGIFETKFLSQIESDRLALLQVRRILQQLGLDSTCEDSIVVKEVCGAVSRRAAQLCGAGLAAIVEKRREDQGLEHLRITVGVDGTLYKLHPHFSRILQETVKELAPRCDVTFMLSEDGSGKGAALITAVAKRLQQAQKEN
The experiment is described as follows: HKDC1 hexokinase inhibitors, dose response, biochemical, W721R variant (AID 504729).

Experiment [6] is described as follows: MC4R antagonists, dose response, counter-screen for LGR2 antagonist project, cell-based, plate reader, cherry pick (AID 743444).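 Also: transfected HEK 293 cells stimulated with alpha-MSH peptide; potency of inhibitors of the alpha-MSH evoked signal.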
The target in experiment [7] is Mast/stem cell growth factor receptor Kit (Homo sapiens, UniProt P10721).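 Also: KIT entry within a kinase panel assay.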
Experiment [8] has as its target Tyrosine-protein kinase FRK (Homo sapiens, UniProt P42685).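 Also: FRK tested as one member of a kinome panel.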
Experiment [9] deals with Serine/threonine-protein kinase PLK4 (Homo sapiens, UniProt O00444).
For experiment [10], the target named is Serine/threonine-protein kinase Chk2 (Homo sapiens, UniProt O96017).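 Also: CHEK2 entry within a kinome-wide screening panel.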
Experiment [11] concerns the target LIM domain kinase 1 (Homo sapiens, UniProt P53667). The experiment is described as follows: Navigating the Kinome. Panel member name: LIMK1.
The target in experiment [12] is Protein-tyrosine kinase 6 (Homo sapiens, UniProt Q13882).
In experiment [13] the target is Phosphorylase b kinase gamma catalytic chain, liver/testis isoform (Homo sapiens, UniProt P15735).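 Also: PHKG2 measured as one member of a kinome-wide kinase panel.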
Experiment [14] addresses Tyrosine-protein kinase Srms (Homo sapiens, UniProt Q9H3Y6).
For experiment [15], the target named is Maternal embryonic leucine zipper kinase (Homo sapiens, UniProt Q14680).
Experiment [16] has as its target Receptor-type tyrosine-protein kinase FLT3 (Homo sapiens, UniProt P36888).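 Also: FLT3 was tested as one member of a kinome-wide kinase panel.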
For experiment [17], the target named is Cyclin-dependent kinase 7 (Homo sapiens, UniProt P50613).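 Also: value comes from a kinome-wide kinase profiling panel in which CDK7 is one member.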
The target in experiment [18] is Casein kinase I isoform alpha (Homo sapiens, UniProt P48729).
In experiment [19] the target is High affinity nerve growth factor receptor (Homo sapiens, UniProt P04629).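 Also: NTRK1 tested as one member of a kinome-wide profiling panel.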
Experiment [20] concerns the target Proto-oncogene tyrosine-protein kinase Src (Homo sapiens, UniProt P12931).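 Also: SRC entry within a kinome-wide kinase profiling panel.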
Experiment [21] concerns the target Serine/threonine-protein kinase TAO1 (Homo sapiens, UniProt Q7L7X3).
Experiment [22] has as its target Serine/threonine-protein kinase pim-2 (Homo sapiens, UniProt Q9P1W9).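 Also: value comes from a broad kinase panel profiling study in which PIM2 was one of the panel members.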
For experiment [23], the target named is 3-phosphoinositide-dependent protein kinase 1 (Homo sapiens, UniProt O15530).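 Also: value comes from the Navigating the Kinome panel, PDPK1 member.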
The nature of experiment [24]: cytotoxicity toward NIH3T3 fibroblasts, dose response, counter-screen, cell-based, ATP luminescence, mouse fibroblasts (AID 2010).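 Also: cells exposed to compound for about 90 hours before reading.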
Experiment [25] deals with HeLa. Put plainly: Cytotoxicity counterscreen assay for transcriptional activators of heat shock protein 70 (Hsp70). [Related pubchem assays: 1203, 1252 ]. To be noted: Homo sapiens.
Experiment [26] addresses T2, Sphingosine 1-phosphate receptor 4 (Homo sapiens, UniProt O95977).
T2 sequence (O95977 whole entry): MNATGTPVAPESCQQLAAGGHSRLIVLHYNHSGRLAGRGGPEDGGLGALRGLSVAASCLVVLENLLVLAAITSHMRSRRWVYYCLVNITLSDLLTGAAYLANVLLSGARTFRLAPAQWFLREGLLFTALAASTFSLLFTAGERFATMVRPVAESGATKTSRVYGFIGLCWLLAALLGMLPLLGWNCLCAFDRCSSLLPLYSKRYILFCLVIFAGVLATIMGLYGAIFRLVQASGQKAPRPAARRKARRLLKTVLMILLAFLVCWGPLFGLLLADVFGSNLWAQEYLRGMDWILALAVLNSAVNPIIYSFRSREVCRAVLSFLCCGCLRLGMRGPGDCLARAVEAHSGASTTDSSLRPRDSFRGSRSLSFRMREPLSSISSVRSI
Put plainly: Fluorescence dose response cell-based high throughput screening assay for antagonists of the Sphingosine 1-Phosphate Receptor 4 (S1P4). [Related pubchem assays: 1524 (Confirmation in triplicates.), 1510 (Primary screen.)].
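For CC50 in this document: cells exposed to compound for 16 hours before readout.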

Peroxisome proliferator-activated receptor gamma/Nuclear receptor coactivator 2, sequence (P37231 whole entry): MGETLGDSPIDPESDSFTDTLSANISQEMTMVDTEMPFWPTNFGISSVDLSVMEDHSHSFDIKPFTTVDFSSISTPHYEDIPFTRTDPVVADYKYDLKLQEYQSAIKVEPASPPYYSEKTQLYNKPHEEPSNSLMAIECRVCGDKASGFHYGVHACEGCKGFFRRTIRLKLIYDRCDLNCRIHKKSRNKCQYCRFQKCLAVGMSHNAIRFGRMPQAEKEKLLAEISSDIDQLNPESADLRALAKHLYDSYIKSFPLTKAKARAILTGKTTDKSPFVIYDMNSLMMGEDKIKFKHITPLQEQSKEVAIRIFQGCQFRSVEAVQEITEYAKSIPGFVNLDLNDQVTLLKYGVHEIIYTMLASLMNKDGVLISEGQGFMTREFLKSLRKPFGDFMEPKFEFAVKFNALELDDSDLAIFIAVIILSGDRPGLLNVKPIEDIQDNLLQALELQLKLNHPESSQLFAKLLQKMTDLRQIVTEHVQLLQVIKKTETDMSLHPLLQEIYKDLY
Peroxisome proliferator-activated receptor gamma/Nuclear receptor coactivator 2, sequence (Q15596 whole entry, further chain): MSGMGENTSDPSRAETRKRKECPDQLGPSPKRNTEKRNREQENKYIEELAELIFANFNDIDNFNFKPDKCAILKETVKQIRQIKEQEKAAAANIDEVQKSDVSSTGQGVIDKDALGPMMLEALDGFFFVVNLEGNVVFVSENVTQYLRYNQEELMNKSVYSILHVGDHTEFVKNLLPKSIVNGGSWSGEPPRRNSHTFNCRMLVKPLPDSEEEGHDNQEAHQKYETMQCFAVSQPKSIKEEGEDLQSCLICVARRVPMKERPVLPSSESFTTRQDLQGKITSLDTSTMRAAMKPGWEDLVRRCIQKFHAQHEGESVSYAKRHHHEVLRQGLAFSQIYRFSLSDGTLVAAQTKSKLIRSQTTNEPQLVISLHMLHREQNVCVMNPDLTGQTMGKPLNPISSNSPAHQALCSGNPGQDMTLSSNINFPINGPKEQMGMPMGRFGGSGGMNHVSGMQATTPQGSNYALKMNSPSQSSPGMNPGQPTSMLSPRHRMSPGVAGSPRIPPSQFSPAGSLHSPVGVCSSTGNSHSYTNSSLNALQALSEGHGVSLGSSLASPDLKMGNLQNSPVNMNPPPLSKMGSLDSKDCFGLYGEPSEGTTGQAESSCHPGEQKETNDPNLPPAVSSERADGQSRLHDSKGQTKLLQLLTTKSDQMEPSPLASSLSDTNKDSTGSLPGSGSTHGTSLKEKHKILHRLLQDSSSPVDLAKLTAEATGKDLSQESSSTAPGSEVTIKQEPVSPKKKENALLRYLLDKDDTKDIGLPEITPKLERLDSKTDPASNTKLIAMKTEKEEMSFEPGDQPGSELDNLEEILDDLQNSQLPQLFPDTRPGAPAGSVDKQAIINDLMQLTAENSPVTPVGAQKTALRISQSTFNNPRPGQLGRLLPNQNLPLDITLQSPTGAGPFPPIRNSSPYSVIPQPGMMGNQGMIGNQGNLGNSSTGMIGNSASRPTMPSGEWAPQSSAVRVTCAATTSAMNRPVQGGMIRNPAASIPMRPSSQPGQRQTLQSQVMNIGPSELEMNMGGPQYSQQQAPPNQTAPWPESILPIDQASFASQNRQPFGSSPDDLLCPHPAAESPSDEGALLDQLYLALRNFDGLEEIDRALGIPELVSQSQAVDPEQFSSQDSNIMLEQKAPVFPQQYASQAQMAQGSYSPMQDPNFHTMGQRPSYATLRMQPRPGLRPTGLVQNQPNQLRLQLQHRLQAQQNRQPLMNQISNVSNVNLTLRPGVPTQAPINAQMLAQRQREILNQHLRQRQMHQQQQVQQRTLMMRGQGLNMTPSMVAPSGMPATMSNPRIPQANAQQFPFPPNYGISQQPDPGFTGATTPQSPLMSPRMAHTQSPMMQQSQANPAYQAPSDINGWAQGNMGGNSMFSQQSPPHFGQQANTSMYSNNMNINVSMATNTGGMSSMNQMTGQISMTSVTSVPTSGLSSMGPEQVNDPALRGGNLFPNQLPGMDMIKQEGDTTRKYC
Serine/threonine-protein kinase pim-2, sequence (Q9P1W9 whole entry): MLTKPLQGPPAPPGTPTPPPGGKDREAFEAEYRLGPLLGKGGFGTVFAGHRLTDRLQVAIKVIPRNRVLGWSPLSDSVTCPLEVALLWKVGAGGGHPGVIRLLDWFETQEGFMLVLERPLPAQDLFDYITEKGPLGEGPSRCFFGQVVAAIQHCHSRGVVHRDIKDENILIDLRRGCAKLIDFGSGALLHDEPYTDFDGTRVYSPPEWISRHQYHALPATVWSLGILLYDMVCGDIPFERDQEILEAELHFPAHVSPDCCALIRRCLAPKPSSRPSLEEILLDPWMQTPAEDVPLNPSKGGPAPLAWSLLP
Tyrosine-protein kinase FRK, sequence (P42685 whole entry): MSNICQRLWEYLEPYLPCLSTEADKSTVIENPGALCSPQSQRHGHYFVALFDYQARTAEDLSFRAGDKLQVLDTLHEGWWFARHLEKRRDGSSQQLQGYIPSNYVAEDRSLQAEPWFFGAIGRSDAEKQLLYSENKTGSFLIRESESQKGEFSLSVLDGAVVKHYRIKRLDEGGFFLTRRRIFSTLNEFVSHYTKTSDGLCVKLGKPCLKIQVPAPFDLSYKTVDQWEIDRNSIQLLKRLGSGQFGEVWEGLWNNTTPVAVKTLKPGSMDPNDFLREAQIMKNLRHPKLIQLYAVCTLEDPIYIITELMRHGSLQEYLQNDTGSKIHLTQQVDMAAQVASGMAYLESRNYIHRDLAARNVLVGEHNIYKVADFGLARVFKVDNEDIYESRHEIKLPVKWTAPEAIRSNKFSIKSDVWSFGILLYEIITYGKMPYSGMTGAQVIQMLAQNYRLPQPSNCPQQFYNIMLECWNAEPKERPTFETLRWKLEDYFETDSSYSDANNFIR
Maternal embryonic leucine zipper kinase, sequence (Q14680 whole entry): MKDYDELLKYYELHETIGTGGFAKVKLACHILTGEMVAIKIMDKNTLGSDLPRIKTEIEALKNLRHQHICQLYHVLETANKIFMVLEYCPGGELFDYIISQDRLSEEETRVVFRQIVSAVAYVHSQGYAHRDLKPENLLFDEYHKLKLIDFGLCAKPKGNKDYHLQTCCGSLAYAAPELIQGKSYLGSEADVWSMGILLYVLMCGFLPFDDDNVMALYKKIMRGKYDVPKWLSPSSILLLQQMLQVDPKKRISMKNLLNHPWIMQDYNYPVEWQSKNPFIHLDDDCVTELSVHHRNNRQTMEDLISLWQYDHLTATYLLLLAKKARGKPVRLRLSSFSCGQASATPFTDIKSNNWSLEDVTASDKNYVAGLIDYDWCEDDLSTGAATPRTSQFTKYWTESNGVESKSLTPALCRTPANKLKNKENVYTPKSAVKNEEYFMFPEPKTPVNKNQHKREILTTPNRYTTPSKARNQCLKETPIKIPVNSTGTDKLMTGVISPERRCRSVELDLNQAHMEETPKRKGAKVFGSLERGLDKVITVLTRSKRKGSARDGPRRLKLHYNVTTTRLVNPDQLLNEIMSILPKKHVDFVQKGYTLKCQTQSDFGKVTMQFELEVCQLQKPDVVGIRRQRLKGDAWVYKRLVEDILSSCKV
Receptor-type tyrosine-protein kinase FLT3, sequence (P36888 whole entry): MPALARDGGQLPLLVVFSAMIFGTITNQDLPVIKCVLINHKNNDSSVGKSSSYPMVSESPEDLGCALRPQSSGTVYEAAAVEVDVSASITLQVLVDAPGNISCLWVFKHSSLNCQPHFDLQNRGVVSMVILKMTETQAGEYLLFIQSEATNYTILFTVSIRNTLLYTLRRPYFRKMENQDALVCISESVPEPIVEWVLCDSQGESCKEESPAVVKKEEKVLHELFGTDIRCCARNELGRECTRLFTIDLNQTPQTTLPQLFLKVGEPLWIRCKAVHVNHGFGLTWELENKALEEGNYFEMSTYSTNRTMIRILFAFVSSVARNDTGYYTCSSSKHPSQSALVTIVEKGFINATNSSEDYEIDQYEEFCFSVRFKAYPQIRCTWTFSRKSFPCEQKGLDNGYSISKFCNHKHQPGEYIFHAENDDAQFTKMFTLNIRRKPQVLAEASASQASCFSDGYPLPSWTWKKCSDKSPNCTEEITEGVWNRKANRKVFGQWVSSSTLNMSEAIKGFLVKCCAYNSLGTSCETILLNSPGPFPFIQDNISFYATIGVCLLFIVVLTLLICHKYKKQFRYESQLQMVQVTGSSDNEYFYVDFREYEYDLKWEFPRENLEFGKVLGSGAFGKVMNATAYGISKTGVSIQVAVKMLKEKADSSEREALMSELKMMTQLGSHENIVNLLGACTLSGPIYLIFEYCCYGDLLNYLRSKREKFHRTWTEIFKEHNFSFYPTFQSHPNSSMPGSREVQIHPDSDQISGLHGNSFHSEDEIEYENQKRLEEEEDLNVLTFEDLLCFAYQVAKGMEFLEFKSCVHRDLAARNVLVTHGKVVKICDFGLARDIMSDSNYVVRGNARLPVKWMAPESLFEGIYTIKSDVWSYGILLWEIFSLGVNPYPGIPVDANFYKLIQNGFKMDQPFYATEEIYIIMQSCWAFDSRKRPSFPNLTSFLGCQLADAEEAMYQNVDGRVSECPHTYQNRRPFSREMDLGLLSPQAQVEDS
Glucose-6-phosphate 1-dehydrogenase, sequence (P11413 whole entry): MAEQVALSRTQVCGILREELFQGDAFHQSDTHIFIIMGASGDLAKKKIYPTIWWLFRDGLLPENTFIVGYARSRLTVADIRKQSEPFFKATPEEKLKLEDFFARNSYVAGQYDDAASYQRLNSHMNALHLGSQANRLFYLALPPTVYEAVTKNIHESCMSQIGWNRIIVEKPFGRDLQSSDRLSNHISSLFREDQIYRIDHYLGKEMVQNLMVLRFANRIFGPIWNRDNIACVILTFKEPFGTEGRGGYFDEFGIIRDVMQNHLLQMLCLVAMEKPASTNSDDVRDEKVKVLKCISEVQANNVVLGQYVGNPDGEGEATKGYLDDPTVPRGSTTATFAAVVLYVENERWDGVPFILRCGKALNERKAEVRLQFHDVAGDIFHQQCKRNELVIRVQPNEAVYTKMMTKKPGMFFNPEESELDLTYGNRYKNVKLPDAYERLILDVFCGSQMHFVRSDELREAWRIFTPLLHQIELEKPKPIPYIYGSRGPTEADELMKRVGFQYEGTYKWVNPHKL

As for `CN(C)c1ncc(C2=C(Cl)C(=O)C(N3CCCC3)=C(Cl)C2=O)s1`, the concentration for half-maximal inhibition (IC50) is > 100000 nM (active) in experiment [1], > 66600 nM (inactive) in [2] and 30700 nM (inactive) in [4]. Also, the concentration giving a half-maximal response (EC50) in experiment [3] was > 79400 nM (not active).

Consider `Cc1ccc(C(=O)c2c(C)oc3c2C(=O)C(=O)c2ccccc2-3)cc1`, for which the IC50 in [5] was 6940 nM (active).

For `Cc1cnc(NC(=O)c2sc3ccccc3c2Cl)s1`, the AC50 in experiment [6] was 3250 nM (active).

Consider `O=C1NC(=S)SC1=C1C(=O)Nc2ccc(Br)cc21`, for which the Ki in [7] was > 1260 nM (inactive); in experiment [8], > 2510 nM (inactive); in [9], 1260 nM (active); in experiment [10], 1260 nM (active); in experiment [11], 3980 nM (active); in [12], > 2510 nM (inactive). Moreover, the Ki in experiment [13] was > 5010 nM (inactive); in experiment [14], > 1580 nM (inactive); in experiment [15], 631 nM (active); in experiment [16], 158 nM (active); in [17], > 1580 nM (inactive); in experiment [18] it was > 6310 nM (inactive). Besides, the Ki in [19] was > 2510 nM (inactive); in [20], > 2000 nM (inactive); in experiment [21], 5010 nM (active); in experiment [22], 251 nM (active); in [23] it was > 3980 nM (inactive).

Regarding `Cc1ccc(Nc2cc(C)nn2-c2nc(C)cc(O)n2)cc1`, the EC50 in experiment [24] is 497 nM (active). For the same molecule, the CC50 in experiment [25] was 7590 nM (active). Besides, in experiment [26], the IC50 was 170 nM (active).
